Test results: patent US20110098269A1, “Substituted Pyridazinone Derivatives as Histamine-3 (H3) Receptor Ligands” (Cephalon, Inc., priority 2008, published 2011)
Structures can show the parent of a compound that is named as a salt.

Experiments:
human H3 receptor = molecular target: T1, human H3 receptor (Homo sapiens, UniProt Q9Y5N1); experiment: Human H3 radioligand binding ([3H]-N-alpha-methylhistamine, CHO cell membranes); conditions: Human H3 binding constant, class symbols; read-out: hH3 Ki
T1 construct: expressed in transfected cells
Method: (§1) Methods: CHO cells stably expressing the human H3 receptor (GenBank: NM_007232) were harvested and cell pellets were frozen (−80° C.). Cell pellets were resuspended in 5 mM Tris-HCl, pH 7.5 with 5 nM EDTA and a cocktail of protease inhibitors (Complete Protease Inhibitor Tablets, Roche Diagnostics). Cells were disrupted using a polytron cell homogenizer and the suspension was centrifuged at 1000×g for 10 minutes at 4° C. The pellet was discarded and the supernatant centrifuged at 40,000×g for 30 min at 4° C. This membrane pellet was washed in membrane buffer containing 50 mM Tris-HCl, pH 7.5 with 0.6 mM EDTA, 5 mM MgCl2 and protease inhibitors, recentrifuged as above and the final pellet resuspended in membrane buffer plus 250 mM sucrose and frozen at −80° C.
(§2) Radioligand Binding. Membranes were resuspended in 50 mM Tris HCl (pH 7.4), 5 mM MgCl2, 0.1% BSA. The membrane suspensions (10 μg protein per well) were incubated in a 96 well microtiter plate with [^3H]-N-alpha-methylhistamine (approximately 1 nM final concentration), test compounds at various concentrations (0.01 nM-30 μM) and scintillation proximity beads (Perkin Elmer, FlashBlueGPCR Scintillating Beads) in a final volume of 80 μl for 4 hours at room temperature, protected from light. Non-specific binding was determined in the presence of 10 μM clobenpropit. Radioligand bound to receptor, and therefore in proximity to the scintillation beads, was measured using a MicroBeta scintillation counter.

[1] = molecular target: T2, rat histamine H3 receptor (Rattus norvegicus, UniProt Q9QYN8); experiment: Rat H3 radioligand binding ([3H]-N-alpha-methylhistamine, CHO-A3 cell membranes); conditions: Rat H3 binding constant, class symbols; read-out: rH3 Ki
T2 construct: encoding the entire 445-amino-acid rat histamine H3 receptor; expressed in transfected cells
Source text: as §1, with “Cell line development and membrane preparation. The rat” for “Methods: CHO cells stably expressing the human”, “cDNA was PCR amplified from reverse-transcribed RNA pooled from rat thalamus, hypothalamus, striatum and prefrontal cortex with a sequence corresponding to by #338-1672 of Genbank file #NM_053506, encoding the entire 445-amino-acid rat histamine H3 receptor. This was engineered into the pIRES-neo3 mammalian expression vector, which was stably transfected into the CHO-A3 cell line (Euroscreen, Belgium), followed by clonal selection by limiting dilution. Cells” for “(GenBank: NM_007232)”
as §2

T2 sequence (Q9QYN8 whole entry): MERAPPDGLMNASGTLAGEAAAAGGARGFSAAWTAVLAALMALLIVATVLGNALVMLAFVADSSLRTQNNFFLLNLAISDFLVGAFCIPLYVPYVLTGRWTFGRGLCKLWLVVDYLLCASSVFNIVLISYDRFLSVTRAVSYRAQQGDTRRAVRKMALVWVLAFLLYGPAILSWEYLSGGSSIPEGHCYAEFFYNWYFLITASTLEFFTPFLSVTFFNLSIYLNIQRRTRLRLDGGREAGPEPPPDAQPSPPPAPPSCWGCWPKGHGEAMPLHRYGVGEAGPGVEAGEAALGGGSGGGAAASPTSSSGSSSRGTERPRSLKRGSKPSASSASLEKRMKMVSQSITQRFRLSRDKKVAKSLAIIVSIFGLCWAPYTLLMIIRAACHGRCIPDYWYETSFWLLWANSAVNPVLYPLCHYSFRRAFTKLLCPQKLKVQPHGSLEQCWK
T1 sequence (Q9Y5N1 whole entry): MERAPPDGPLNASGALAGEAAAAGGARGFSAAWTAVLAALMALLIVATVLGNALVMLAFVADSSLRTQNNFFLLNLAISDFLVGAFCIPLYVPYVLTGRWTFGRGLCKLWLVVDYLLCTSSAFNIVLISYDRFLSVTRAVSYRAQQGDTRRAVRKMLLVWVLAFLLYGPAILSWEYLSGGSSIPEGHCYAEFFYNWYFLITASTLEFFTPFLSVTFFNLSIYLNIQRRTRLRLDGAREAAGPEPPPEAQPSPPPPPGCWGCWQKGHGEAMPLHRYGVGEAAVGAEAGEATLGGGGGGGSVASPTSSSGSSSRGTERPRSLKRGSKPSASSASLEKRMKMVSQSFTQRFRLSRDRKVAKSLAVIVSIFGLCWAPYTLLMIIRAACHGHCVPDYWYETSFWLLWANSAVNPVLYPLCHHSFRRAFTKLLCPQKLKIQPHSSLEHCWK

melting point | Ki (human H3 receptor) | Ki [1] | SMILES
239 to 240 °C | – | – | Cn1nc(-c2ccc3c(c2)CCN(C2CCCC2)CC3)ccc1=O (as salt: HCl) [Example 23, 6-(3-Cyclopentyl-2,3,4,5-tetrahydro-1H-benzo[d]azepin-7-yl)-2-methyl-2H-pyridazin-3-one. HCl]
129 to 132 °C | – | – | O=C1NN=C(c2ccc3c(c2)CCN(C2CCC2)CC3)C2CC12 (stereo not shown) (as salt: HCl) [Example 40, 5-(3-Cyclobutyl-2,3,4,5-tetrahydro-1H-benzo[d]azepin-7-yl)-3,4-diaza-bicyclo[4.1.0]hept-4-en-2-one]
295 to 298 °C | – | – | C[C@@H]1CCCN1CCc1ccc2cc(-c3ccc(=O)[nH]n3)ccc2c1 (as salt: HCl) [Example 70, 6-{6-[2-((R)-2-Methyl-pyrrolidin-1-yl)-ethyl]-naphthalen-2-yl}-2H-pyridazin-3-one]
250 to 251 °C | < 100 nM | < 100 nM | O=c1ccc(-c2ccc3c(c2)CCN(C2CCC2)CC3)n[nH]1 [Example 2, 6-(3-Cyclobutyl-2,3,4,5-tetrahydro-1H-benzo[d]azepin-7-yl)-2H-pyridazin-3-one]
140 to 141 °C | < 100 nM | 100 to 1000 nM | CC(C)N1N=C(c2ccc3c(c2)CCN(C2CCC2)CC3)CCC1=O [Example 4, 6-(3-Cyclobutyl-2,3,4,5-tetrahydro-1H-benzo[d]azepin-7-yl)-2-isopropyl-4,5-dihydro-2H-pyridazin-3-one]
199 to 200 °C | < 100 nM | 100 to 1000 nM | CC(C)n1nc(-c2ccc3c(c2)CCN(C2CCC2)CC3)ccc1=O [Example 7, 6-(3-Cyclobutyl-2,3,4,5-tetrahydro-1H-benzo[d]azepin-7-yl)-2-isopropyl-2H-pyridazin-3-one]
178 to 179 °C | < 100 nM | 100 to 1000 nM | O=C1CCC(c2ccc3c(c2)CCN(C2CCC2)CC3)=NN1 [Example 9, 6-(3-Cyclobutyl-2,3,4,5-tetrahydro-1H-benzo[d]azepin-7-yl)-4,5-dihydro-2H-pyridazin-3-one]
139 to 140 °C | < 100 nM | < 100 nM | O=C1CCC(c2ccc3c(c2)CCN(C2CCC2)CC3)=NN1CC(F)(F)F [Example 10, 6-(3-Cyclobutyl-2,3,4,5-tetrahydro-1H-benzo[d]azepin-7-yl)-2-(2,2,2-trifluoro-ethyl)-4,5-dihydro-2H-pyridazin-3-one]
142 to 143 °C | < 100 nM | < 100 nM | O=c1ccc(-c2ccc3c(c2)CCN(C2CCC2)CC3)nn1CC(F)(F)F [Example 11, 6-(3-Cyclobutyl-2,3,4,5-tetrahydro-1H-benzo[d]azepin-7-yl)-2-(2,2,2-trifluoro-ethyl)-2H-pyridazin-3-one]
97 to 98 °C | < 100 nM | < 100 nM | CCN1N=C(c2ccc3c(c2)CCN(C2CCC2)CC3)CCC1=O [Example 12, 6-(3-Cyclobutyl-2,3,4,5-tetrahydro-1H-benzo[d]azepin-7-yl)-2-ethyl-4,5-dihydro-2H-pyridazin-3-one]
104 to 105 °C | < 100 nM | < 100 nM | CCCCN1N=C(c2ccc3c(c2)CCN(C2CCC2)CC3)CCC1=O [Example 13, 2-Butyl-6-(3-cyclobutyl-2,3,4,5-tetrahydro-1H-benzo[d]azepin-7-yl)-4,5-dihydro-2H-pyridazin-3-one]
88 to 89 °C | < 100 nM | < 100 nM | CCCCn1nc(-c2ccc3c(c2)CCN(C2CCC2)CC3)ccc1=O [Example 14, 2-Butyl-6-(3-cyclobutyl-2,3,4,5-tetrahydro-1H-benzo[d]azepin-7-yl)-2H-pyridazin-3-one]
134 to 135 °C | < 100 nM | 100 to 1000 nM | CC(C)CN1N=C(c2ccc3c(c2)CCN(C2CCC2)CC3)CCC1=O [Example 15, 6-(3-Cyclobutyl-2,3,4,5-tetrahydro-1H-benzo[d]azepin-7-yl)-2-isobutyl-4,5-dihydro-2H-pyridazin-3-one]
245 to 246 °C | < 100 nM | 100 to 1000 nM | CC(C)Cn1nc(-c2ccc3c(c2)CCN(C2CCC2)CC3)ccc1=O [Example 16, 6-(3-Cyclobutyl-2,3,4,5-tetrahydro-1H-benzo[d]azepin-7-yl)-2-isobutyl-2H-pyridazin-3-one]
141 to 142 °C | < 100 nM | < 100 nM | O=C1CCC(c2ccc3c(c2)CCN(C2CCC2)CC3)=NN1CCO [Example 17, 6-(3-Cyclobutyl-2,3,4,5-tetrahydro-1H-benzo[d]azepin-7-yl)-2-(2-hydroxy-ethyl)-4,5-dihydro-2H-pyridazin-3-one]
157 to 158 °C | < 100 nM | < 100 nM | O=c1ccc(-c2ccc3c(c2)CCN(C2CCC2)CC3)nn1CCO [Example 18, 6-(3-Cyclobutyl-2,3,4,5-tetrahydro-1H-benzo[d]azepin-7-yl)-2-(2-hydroxy-ethyl)-2H-pyridazin-3-one]
126 to 128 °C | < 100 nM | 100 to 1000 nM | O=C1CCC(c2ccc3c(c2)CCN(C2CCC2)CC3)=NN1C1CCC1 [Example 19, 2-Cyclobutyl-6-(3-cyclobutyl-2,3,4,5-tetrahydro-1H-benzo[d]azepin-7-yl)-4,5-dihydro-2H-pyridazin-3-one]
287 to 288 °C | < 100 nM | < 100 nM | Cn1nc(-c2ccc3c(c2)CCN(C2CCC2)CC3)ccc1=O [Example 21, 6-(3-Cyclobutyl-2,3,4,5-tetrahydro-1H-benzo[d]azepin-7-yl)-2-methyl-2H-pyridazin-3-one]
225 °C | < 100 nM | 100 to 1000 nM | CS(=O)(=O)c1ccc(-n2nc(-c3ccc4c(c3)CCN(C3CCC3)CC4)ccc2=O)cc1 [Example 25, 6-(3-Cyclobutyl-2,3,4,5-tetrahydro-1H-benzo[d]azepin-7-yl)-2-(4-methanesulfonyl-phenyl)-2H-pyridazin-3-one]
134 to 137 °C | < 100 nM | < 100 nM | Cn1nc(-c2ccc(Oc3ccc4c(c3)CCN(C3CCC3)CC4)nc2)ccc1=O [Example 26, 6-[6-(3-Cyclobutyl-2,3,4,5-tetrahydro-1H-benzo[d]azepin-7-yloxy)-pyridin-3-yl]-2-methyl-2H-pyridazin-3-one]
215 to 220 °C | < 100 nM | < 100 nM | O=c1ccc(-c2ccc(Oc3ccc4c(c3)CCN(C3CCC3)CC4)nc2)n[nH]1 [Example 27, 6-[6-(3-Cyclobutyl-2,3,4,5-tetrahydro-1H-benzo[d]azepin-7-yloxy)-pyridin-3-yl]-2H-pyridazin-3-one]
178 to 182 °C | < 100 nM | < 100 nM | O=c1ccc(-c2ccc(Oc3ccc4c(c3)CCN(C3CCC3)CC4)nc2)nn1-c1ccccn1 [Example 28, 6-[6-(3-Cyclobutyl-2,3,4,5-tetrahydro-1H-benzo[d]azepin-7-yloxy)-pyridin-3-yl]-2-pyridin-2-yl-2H-pyridazin-3-one]

SMILES | melting point | Ki (human H3 receptor) | Ki [1]
O=C1NN=C(c2ccc3c(c2)CCNCC3)C2CC12 (stereo not shown) (as salt: HCl) [Example 39, 5-(2,3,4,5-Tetrahydro-1H-benzo[d]azepin-7-yl)-3,4-diaza-bicyclo[4.1.0]hept-4-en-2-one] | 148 to 151 °C | – | –
CC(C)N1CCc2ccc(C3=NN(C(C)C)C(=O)CC3)cc2CC1 [Example 6, 2-Isopropyl-6-(3-isopropyl-2,3,4,5-tetrahydro-1H-benzo[d]azepin-7-yl)-4,5-dihydro-2H-pyridazin-3-one] | 125 to 126 °C | 100 to 1000 nM | 100 to 1000 nM
CC(C)N1CCc2ccc(-c3ccc(=O)n(C(C)C)n3)cc2CC1 [Example 8, 2-Isopropyl-6-(3-isopropyl-2,3,4,5-tetrahydro-1H-benzo[d]azepin-7-yl)-2H-pyridazin-3-one] | 244 to 245 °C | 100 to 1000 nM | 100 to 1000 nM
Cn1nc(-c2ccc3c(c2)CCNCC3)ccc1=O [Example 20, 2-Methyl-6-(2,3,4,5-tetrahydro-1H-benzo[d]azepin-7-yl)-2H-pyridazin-3-one] | 183 to 185 °C | > 1000 nM | > 1000 nM
